According to PubChem BioAssay (NCI):
Several values for one entry are separate records, joined by “and”; a condition that tells them apart may be missing. Equal values may be shown once.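 These data come from cells grown in 96-well plates and exposed to compound for 48 hours at five concentrations. GI50: concentration for 50% inhibition of growth. Definition used: TGI = concentration required for complete inhibition of growth.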

Key:
Assay in all cases: DTP human tumour cell line panel, 48 h
HT29 colon = test system: HT29 colon
SNB-75 CNS = test system: SNB-75 CNS
MCF7 breast = test system: MCF7 breast
K-562 leukemia = test system: K-562 leukemia
OVCAR-5 ovarian = test system: OVCAR-5 ovarian
SK-MEL-2 melanoma = test system: SK-MEL-2 melanoma
HCT-15 colon = test system: HCT-15 colon
TK-10 renal = test system: TK-10 renal
OVCAR-4 ovarian = test system: OVCAR-4 ovarian
HS 578T breast = test system: HS 578T breast

Compound | GI50 (HT29 colon) | TGI (HT29 colon) [µM] | GI50 (SNB-75 CNS) | TGI (SNB-75 CNS) | GI50 (MCF7 breast) | TGI (MCF7 breast) [µM] | GI50 (K-562 leukemia) | TGI (K-562 leukemia) [µM] | GI50 (OVCAR-5 ovarian) | TGI (OVCAR-5 ovarian) [µM] | GI50 (SK-MEL-2 melanoma) | TGI (SK-MEL-2 melanoma) [µM] | GI50 (HCT-15 colon) | TGI (HCT-15 colon) [µM] | GI50 (TK-10 renal) | TGI (TK-10 renal) [µM] | GI50 (OVCAR-4 ovarian) [µM] | TGI (OVCAR-4 ovarian) [µM] | GI50 (HS 578T breast) | TGI (HS 578T breast)
CCN(Cc1ccc(F)c(F)c1)c1ccc(CO)c(Cl)c1 | 4.52 µM | 19.1 | 2.99 µM | 19.5 µM | 0.195 µM | 12.3 | 1.37 µM | 21.5 | 0.0592 µM | 0.306 | 4.08 µM | 19.5 | 6.63 µM | 25 | 0.102 µM | 0.303 | 0.18 | 1.46 | 12.4 µM | 40 µM
CCCCCn1c(=N)n(CC(O)COc2cccc(C)c2)c2ccccc21 (configuration not stated) | 2.73 µM | 11.2 | 2.65 µM | 16.5 µM | 2.85 µM | 11.6 | 2.76 µM | 10.2 | 9.82 µM | 25.2 | 5.68 µM | 18.4 | 4.93 µM | 20.3 | 10.2 µM | 22.4 | 3.67 | 17.6 | 5.5 µM | 24.8 µM
CCCC[C@H](NC(=O)[C@H]1CCCN1C)C(=O)N(C)[C@H](C[C@@H](OC(C)=O)c1nc(C(=O)N[C@@H](Cc2ccccc2)C[C@H](C)C(=O)OCC)cs1)C(C)C | 0.00974 µM | 0.0414 | 0.0152 µM | 8.92 µM | < 0.00333 µM | > 33.3 | 0.00726 µM | > 33.3 | 0.0642 µM | > 33.3 | 0.00613 µM | 8.71 | 0.0365 µM | > 33.3 | 6.88 µM | > 33.3 | 0.357 | > 33.3 | 0.0186 µM | 6.92 µM
CN1CCN(CCc2cccc(C(=O)c3cnn(-c4ccc(F)cc4)c3N)c2)CC1 | > 25 µM | > 25 | > 25 µM | > 25 µM | > 25 µM | > 25 | > 25 µM | > 25 | > 25 µM | > 25 | > 25 µM | > 25 | > 25 µM | > 25 | > 25 µM | > 25 | > 25 | > 25 | > 25 µM | > 25 µM
O=CNc1c(Cl)cc2c(c1Cl)Cc1cc([N+](=O)[O-])ccc1-2 | 4.41 µM | > 54.8 | 2.84 µM | 21.5 µM | 0.34 µM | > 100 | 1.38 µM | > 100 | 16.6 µM | > 100 | 27.9 µM | > 86.6 | 3.27 µM | > 100 | 5.63 µM | > 59.5 | 6.11 | > 100 | 1.77 µM | 14.4 µM
O=C(c1ccc(F)cc1)c1cccc(C(=O)c2ccc(F)cc2)n1 | – | > 100 | – | 22.7 µM | – | > 100 | – | > 100 | – | > 100 | – | 42.9 | – | > 100 | – | 69.3 | – | > 100 | – | > 94.8 µM
COC(=O)[C@H](Cc1cn(C)cn1)NC(=O)[C@H](Cc1c[nH]c2ccccc12)NC(=O)Nc1cc(C(F)(F)F)cc(C(F)(F)F)c1 | > 10 µM | > 10 | > 10 µM | > 10 µM | > 10 µM | > 10 | > 10 µM | > 10 | > 10 µM | > 10 | > 10 µM | > 10 | > 10 µM | > 10 | > 10 µM | > 10 | > 10 | > 10 | > 10 µM | > 10 µM
Nc1ccn(Cc2ccc(C34CC5CC(CC(C5)C3)C4)c(O)c2)c(=O)n1 | > 100 µM | > 100 | 24 µM | 84 µM | 91.5 µM | > 100 | 35.3 µM | > 100 | > 100 µM | > 100 | 76.1 µM | > 100 | > 100 µM | > 100 | > 100 µM | > 100 | > 100 | > 100 | 14.4 µM | > 100 µM
COc1cc(C2c3cc4c(cc3OC(N3CCCC3)C2C)OCO4)cc(OC)c1OC (configuration not stated) | – | 1.22 | – | 9.4 µM | – | 4.06 | – | > 19.1 | – | > 47.9 | – | 7.56 | – | 13 | – | 30.2 | – | 80.1 | – | 2.3 µM
CC1SC(c2c(Cl)cccc2Cl)N(NC(=O)c2[nH]c3ccc(F)cc3c2-c2ccccc2)C1=O (configuration not stated) | 2.96 µM | 10.8 | 1.43 µM | 3.27 µM | 3.18 µM | 11.5 | 21.9 µM | > 100 | 3.06 µM | 21.3 | 3.29 µM | 15.6 | 3.73 µM | 22.2 | 2.56 µM | 7.12 | 1.69 | 3.4 | 1.93 µM | 4.38 µM
CC(C)(C)C[C@H]1NC(C(=O)NCC[C@H](O)CO)[C@H](c2cccc(Cl)c2)[C@@]12C(=O)Nc1cc(Cl)c(F)cc12 (some centres not stated) | 17 µM | 32.4 | 14.1 µM | 29.9 µM | 1.61 µM | 11.7 | 14.8 µM | 43.6 | 15.5 µM | 31.8 | 14.4 µM | 28.6 | 17.8 µM | 37.5 | 19.2 µM | 39.5 | 14.8 | 32.4 | 16 µM | 60.4 µM
CC(C)NC[C@@H](C(=O)N1CCN(c2ncnc3c2[C@H](C)C[C@H]3O)CC1)c1ccc(Cl)cc1 | 1.58 µM and 3.45 µM | > 100 | 0.285 µM and 0.213 µM | > 10 µM and 5.44 µM | 1.6 µM and 1.74 µM | > 100 | > 10 µM and 48.1 µM | > 100 | > 10 µM and 29.8 µM | > 100 | > 10 µM and 33 µM | > 80.2 | > 10 µM and 44.8 µM | > 100 | 1.29 µM and 3.32 µM | > 66.4 | > 74 | > 100 | 1 µM and 0.657 µM | > 10 µM and 18.4 µM
CCN(CC)c1ccc(C(=C2C=CC(=[N+](CC)Cc3cccc(S(=O)(=O)O)c3)C=C2)c2ccc(N(CC)Cc3cccc(S(=O)(=O)O)c3)cc2)cc1 | 3.4 µM | > 88.9 | 2.75 µM | 17.3 µM | 3.66 µM | > 100 | 3.85 µM | 97.5 | 20.8 µM | > 100 | 10.5 µM | > 92.2 | 28.5 µM | > 100 | 18.8 µM | > 100 | 8.71 | > 100 | 2.86 µM | > 30.5 µM
O=C(CC(=O)CC(O)(C(F)(F)F)C(F)(F)F)CC(O)(C(F)(F)F)C(F)(F)F | – | > 10 | – | > 10 µM | – | > 10 | – | > 10 | – | > 10 | – | > 10 | – | > 10 | – | > 10 | – | > 10 | – | > 10 µM
N#Cc1cnc2cc(OC[C@H](O)CO)c(NC(=O)CC3CSSC3)cc2c1Nc1ccc(OCc2cccc(F)c2)c(Cl)c1 | 0.221 µM | 0.836 | 0.879 µM | 1.74 µM | 0.0865 µM | 0.176 | 0.122 µM | 0.361 | 0.872 µM | 1.89 | 0.638 µM | 1.4 | 3.96 µM | 13.2 | 0.873 µM | 2.13 | 0.619 | 1.57 | 0.447 µM | 1.69 µM
C[C@H](Nc1ncnc2nc[nH]c12)c1cc2cccc(Cl)c2c(=O)n1-c1ccccc1 | 5.92 µM | > 100 | 0.229 µM | 55.2 µM | 3.16 µM | > 100 | 46.9 µM | > 100 | 21.4 µM | > 100 | 19.2 µM | 72.6 | 31.5 µM | > 100 | 2.8 µM | 45.5 | > 100 | > 100 | 0.631 µM | 14.5 µM
Cc1ccc2c(ccc3c[n+]4c5ccccc5ccc4n32)c1 | 2.08 µM | 8.77 | 1.18 µM | 8.05 µM | 2.07 µM | 8.49 | 0.584 µM | 14.4 | 4.42 µM | 45.1 | 1.64 µM | 3.9 | 7.33 µM | > 100 | 4.11 µM | 25.1 | 1.32 | 4.64 | 0.959 µM | 4.71 µM
CNC(=O)c1cncc(/C=C/c2ccccc2C)c1 | > 25 µM | > 25 | > 20.7 µM | > 25 µM | > 25 µM | > 25 | > 25 µM | > 25 | > 25 µM | > 25 | > 25 µM | > 25 | > 25 µM | > 25 | > 25 µM | > 25 | > 25 | > 25 | > 25 µM | > 25 µM
Cc1[c-]onc1C.Cc1[c-]onc1C.[Ag].[Ag].[NH-]S(=O)(=O)c1ccc(N=Nc2cc(N=Nc3ccc(S([NH-])(=O)=O)cc3)c3c(NC(=O)C(Cl)Cl)cccc3c2OC(=O)C(Cl)Cl)cc1 | 9.29 µM | 21.7 | 6.85 µM | 18.9 µM | 2.12 µM | > 50 | 3.99 µM | 32.2 | 9.92 µM | 19 | 6.89 µM | 15.9 | 9.82 µM | 32.1 | 10 µM | 18.2 | 7.66 | 15.1 | 5.81 µM | > 50 µM
CC(C)(C)C#CC1=C(Br)C(=O)OC1 | 0.116 µM | > 100 | 37.7 µM | > 100 µM | 3.99 µM | 25.9 | 0.841 µM | – | – | 0.608 | 12.6 µM | 31.7 | 1.6 µM | > 22.3 | 0.36 µM | 2.26 | 1.85 | 19.6 | > 26.9 µM | > 78.2 µM
Cc1ccc(/C=C2\CN(C(=O)OC(C)(C)C)C/C(=C\c3ccc(C)cc3)C2=O)cc1 | 0.46 µM | > 40.7 | 0.693 µM | > 100 µM | 0.205 µM | > 100 | 0.332 µM | > 100 | 0.391 µM | > 100 | – | > 100 | 0.054 µM | > 100 | > 40.7 µM | > 100 | 3.04 | > 100 | 0.0562 µM | 3.45 µM
COC(=O)[C@@H](C)C[C@H](Cc1ccccc1)NC(=O)c1nc([C@@H](C[C@H](C(C)C)N(C)C(=O)[C@@H](NC(=O)[C@H]2CCCCN2C)C(C)C)OC(C)=O)sc1C | < 0.00167 µM | 0.088 | < 0.00167 µM | > 7.57 µM | < 0.00167 µM | > 16.7 | < 0.00167 µM | > 16.7 | 0.00478 µM | > 16.7 | < 0.00167 µM | > 16.7 | 0.00536 µM | > 16.7 | > 10.4 µM | > 16.7 | 0.0179 | > 16.7 | 0.0024 µM | > 16.7 µM
COc1ccc(N2C(C)=C(C#N)C34C(=O)N(c5ccccc5)C(=O)C3=C(O)C=CC24O)cc1 (configuration not stated) | 12.3 µM | 28.3 | 14.8 µM | 44.5 µM | 10.6 µM | 34.9 | 28.3 µM | > 100 | 18.1 µM | 73.8 | 19.5 µM | 46.3 | 13.8 µM | 33.8 | 21.5 µM | 89 | 24.4 | 94.5 | 24.1 µM | > 100 µM
C[C@@H](C(=O)Nc1ccc(Cl)cc1)C1CCC(c2ccnc3ccc(F)cc23)CC1 (some centres not stated) | 5.81 µM | 40.4 | 12.5 µM | 92.3 µM | 4.4 µM | 97.5 | 5.1 µM | 67.4 | 17.8 µM | > 100 | 9.81 µM | 29.8 | 8.32 µM | > 100 | 6.04 µM | 81.3 | 5.93 | > 100 | 9.3 µM | 68.5 µM
